The experiment addresses T1, human S1P1 receptor (Homo sapiens, UniProt P21453).
T1 construct: expressed in transfected cells; membranes used
Nature of the experiment: GTP γ35S binding assay for S1P1 activity. In kind it is biochemical. Particulars: membranes of cells stably expressing the S1P1 receptor, test compounds 0.08 to 5,000 nM, 30 min at 25° C. As to the method: Compounds were synthesized and tested for S1P1 activity using the GTP γ^35S binding assay. These compounds may be assessed for their ability to activate or block activation of the human S1P1 receptor in cells stably expressing the S1P1 receptor.
GTP γ^35S binding was measured in the medium containing (mM) HEPES 25, pH 7.4, MgCl2 10, NaCl 100, dithitothreitol 0.5, digitonin 0.003%, 0.2 nM GTP γ^35S, and 5 μg membrane protein in a volume of 150 μl. Test compounds were included in the concentration range from 0.08 to 5,000 nM unless indicated otherwise. Membranes were incubated with 100 μM 5′-adenylylimmidodiphosphate for 30 min, and subsequently with 10 μM GDP for 10 min on ice. Drug solutions and membrane were mixed, and then reactions were initiated by adding GTP γ^35S and continued for 30 min at 25° C. Reaction mixtures were filtered over Whatman GF/B filters under vacuum, and washed three times with 3 mL of ice-cold buffer (HEPES 25, pH7.4, MgCl2 10 and NaCl 100). Filters were dried and mixed with scintillant, and counted for ^35S activity using a β-counter. Agonist-induced GTP γ^35S binding was obtained by subtracting that in the absence of agonist. Binding data were analyzed using a non-linear regression method. In case of antagonist assay, the reaction mixture contained 10 nM S1P in the presence of test antagonist at concentrations ranging from 0.08 to 5000 nM.
T1 sequence (P21453 whole entry): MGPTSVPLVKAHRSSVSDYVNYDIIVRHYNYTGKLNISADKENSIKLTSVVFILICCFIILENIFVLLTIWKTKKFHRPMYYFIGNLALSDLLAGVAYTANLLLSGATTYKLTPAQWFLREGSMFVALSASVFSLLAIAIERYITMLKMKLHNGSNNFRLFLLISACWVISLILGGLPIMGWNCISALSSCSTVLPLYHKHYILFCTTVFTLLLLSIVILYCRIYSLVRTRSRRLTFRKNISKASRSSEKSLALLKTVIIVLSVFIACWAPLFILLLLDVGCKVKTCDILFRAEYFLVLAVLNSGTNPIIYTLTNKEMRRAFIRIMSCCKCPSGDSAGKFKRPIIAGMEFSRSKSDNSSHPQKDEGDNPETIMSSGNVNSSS
With `Cc1ccc(CC(CCCOc2ccc(CCC(N)(CO)CO)cc2)c2cc(F)cc(F)c2)cc1C` (stereo not drawn) [Compound 1, 2-amino-2-[2-(4-{[4-(3,5-difluorophenyl)-5-(3,4-dimethylphenyl)pentyl]oxy}phenyl)ethyl]propane-1,3-diol], the concentration giving a half-maximal response (EC50) was 15.1 nM. Regarding `Cc1ccc(CC(CCCOc2ccc(CCC(N)(CO)CO)cc2)c2cccc(F)c2)cc1C` (stereo not drawn) [Compound 2, 2-amino-2-[2-(4-{[5-(3,4-dimethylphenyl)-4-(3-fluorophenyl)pentyl]oxy}phenyl)ethyl]propane-1,3-diol], the concentration for a half-maximal effect (EC50) came to 42 nM. `Cc1ccc(CC(CCCOc2ccc(CCC(N)(CO)CO)cc2)c2cccc(Cl)c2)cc1C` (stereo not drawn) [Compound 3, 2-amino-2-[2-(4-{[4-(3-chlorophenyl)-5-(3,4-dimethylphenyl)pentyl]oxy}phenyl)ethyl]propane-1,3-diol] yielded an EC50 of 92.4 nM.

Usually EC50 stands for the concentration that produces a half-maximal response. The low end stands for an effect from little substance, the high end for a need for much substance.

Source of the values: US20140221498A1, “AMINO DIOL DERIVATIVES AS SPHINGOSINE 1-PHOSPHATE (S1P) RECEPTOR MODULATORS” (ALLERGAN, INC., priority 2013, published 2014).
